Assay results as given in US11541101B1, “LEMD3 antagonizes TGF-beta-driven Smad2/3 transcription in a stiffness-dependent fashion in both the nucleus and cytosol” (University of Virginia Patent Foundation, priority 2018, dated 2023).
Each block holds one compound with its values, some of them ahead of it. Peptide text beside a SMILES is read from it. * marks the point of attachment. Cbz = O=C(OCc1ccccc1)*

Legend:
Smad-driven luciferase = Smad-driven luciferase assay on substrates of varying stiffness; assay type: cell-based, human
Protocol: Smad-Driven Luciferase Assays—HFFs were transfected with Cignal Lenti Reporter virus (Qiagen, Hilden, Germany) with a MOI of 40 and subsequently selected using 400 ng/mL puromycin until untransduced HFFs died. Stably transfected HFFs, with or without additional LEMD3-focused genetic treatments as described above, were plated at 10,000 cells/well on a HTS plate (Matrigen, Brea, Calif.) containing glass surfaces and polyacrylamide gels, which ranged in stiffness from 0.2 kPa to 50 kPa, all functionalized with 10 μg/mL plasma-purified human fibronectin according to the manufacturer's instruction. Cells adhered to the surfaces for 4 hours in serum-free DMEM supplemented with 1% BSA and 1% penicillin/streptomycin. Media was then supplemented with the desired amounts of TGFβ and, when applicable, with cytoskeletal agents as described in the results. HFFs were then incubated for 16 hours at 37 C before the luciferase re-action. Wells were supplemented to 2 mM VivoGlo d-luciferin (Promega, Madison, Wis.) using a plate reader controlled auto-injector system and light production was subsequently quantified every 5 minutes for 30 minutes on a Synergy H4 plate reader (BioTek, Winooski, Vt.). The raw luciferase signal was the median intensity measured over this timecourse minus the intensity from luciferase-transfected cells not treated with TGFβ to account for any TGFβ elaborated and activated by the cells in situ. Cells were then fixed with 4% paraformaldehyde, permeabilized with 0.1% Triton X-100, and then stained with 1:10,000 Hoechst 33342 in 1×PBS for 30 minutes at room temperature (ThermoFisher, Waltham, Mass.). The raw luciferase signal was then normalized to the nuclear signal, which was inside a linear standard curve form cells plated on glass and on polyacrylamide within each plate. Data for each condition was then fit to a three-parameter logistic equation using a least-squares minimization fit in Prism (Graph-Pad, La Jolla, Calif.). […] Otherwise, the trends across the maximal luciferase signal (“Top” variable from the model) or the mid-transition point observed between “Bottom” and “Top” signals (“EC50” variable from the model, called “transition point” in text), were statistically compared using an ANOVA with “Test for Trends,” which restricts the hypothesis testing to a particular order of the data-sets (e.g. max luciferase signal as a function of increasing TGFβ dose or transition point as a function of increased LEMD3 expression). Each data point represents at least three biological replicates.

LEMD3 = assay: Recombinant LEMD3 fragment western blots (FLAG and V5 tags); assay type: cell-based, human; conditions: pFLAG-LEMD3-V5 transfected cells, inhibitor treatment, FIG. 4E
Excerpt: Western Blotting—For non-phosphoprotein western blots: cell lysates from tissue culture plastic or from 2 or 25 kPa, […] Petrisoft dishes (Matrigen, Brea, Calif.) were either: harvested directly in 4× protein loading buffer (Licor, Lincoln, Nebr.) supplemented with protease and phosphatase in-hibitors (#A32959, ThermoFisher, Waltham, Mass.) according to the manufacturer's instructions; or, processed with the NE-PER compartment isolation kit (ThermoFisher, Waltham, Mass.) according to the manufacturer's instructions. Lysates were treated with 0.3 μL of benzonuclease (ThermoFisher, Waltham, Mass.) for 15 minutes at room temperature with vigorous shaking. Samples were heated to 95 C for 5 minutes and run on a 4-12% Bis-Tris gel in 1×MES buffer and run for 70 minutes at 150V. The gel was then transferred to a nitro-cellulose membrane using the XCell Blot Module (ThermoFisher, Waltham, Mass.) at 25V for 65 min-utes. Membranes were air-dried for an hour, blocked with 5% non-fat milk in 1×PBS for an hour at room temperature, and then incubated with primary antibodies as described in Table 3 in 1×PBS-T with 1% milk for 16-24 hours at 4 C. Near-IR or HRP conjugated secondaries as described in Table 4 were then incubated with the blot and imaged subsequently on either an Odyssey CLx system for near-IR dyes (Licor, Lincoln, Nebr.) or a ChemiDoc MP system (Bio-Rad, Hercules, Calif.) with SuperSignal West Femto reagents (ThermoFisher, Waltham, Mass.) for HRP secondaries according to the manufacturer's instructions. Band analysis was performed using the associated Licor or Biorad software.
For recombinant LEMD3 western blots: Two samples of HFFs were prepared and electro-porated as above and plated onto each plastic or hydrogel surface for 12 hours (protease inhibitor experiments) or 24 hours (LEMD3 fragment abundance and deletion mutant experiments) before harvesting. qPCR—RNA was isolated from cultured cells using RNEasy Plus Mini kits (Qiagen, Hilden, Germany) according to the manufacturer's instructions. cDNA libraries were constructed using RT2 First Strand kit (Qiagen, Hilden, Germany) according to the manufacturer's instruction. 25 μL qPCR reactions were prepared using SYBR Green Master Mix (ThermoFisher, Waltham, Mass.) with 250 nM primers, listed in Table 3 and 10 ng input cDNA. Reactions were carried out on a StepOnePlus (ThermoFisher, Waltham, Mass.) for 40 cycles. Melt curves were visually inspected after each run to confirm a single, defined peak in the derivated intensity plot. Data from each run was imported into LinRegPCR, which performed baseline correction and measured PCR efficiency by amplicon group as described in (81). The relative number of transcripts was calculated by dividing the Cq threshold by the PCR efficiency for the reaction raised to the power of Cq, the cycle number at which the threshold is reached for a given target. For relative quantification be-tween conditions, LEMD3 transcripts were either: normalized for each condition to the mean of two reference genes, 18S and ACTB, if the samples were all from a single stiffness condition; or, normalized to 18S alone if substrate stiffness was an experimental condition.

LEMD3-Smad2/3 complexes = assay: LEMD3-Smad2/3 proximity ligation assay (PLA); assay type: cell-based, human
Protocol: In vitro PLA: Protein-protein PLA was per-formed with antibody pairs listed in Table 4 as described in (42) with the following modifications: cells were plated on FN-coated glass or hydrogels (Matrigen, Brea, Calif.). All primary antibody in-cubations were performed for 16-24 hours at 4 C and cells were counter-stained with 1:40 phalloidin-488 or phalloidin-546 in 1×PBS for 30 minutes at room temperature and/or further processed for IF imaging using the procedure recommended in Sigma's PLA Resource Center. For all recombinant LEMD3 and C-terminal fragment experiments, HFFs were electroporated as above and allowed to culture for 24 hours on 10 μg/mL fibronectin coated glass or hydrogels before fixation. For LEMD3-phospho-Smad2/3, LEMD3-Smad2/3+TGFβ and for Smad2/3-Smad4 PLA assays: cells were treated 90 minutes before fixation with 50 μg/mL for LEMD3- and CTF-Smad2/3 assays, 100 μg/mL TGFβ for LEMD3-phospho-Smad2/3 experiments and 500 μg/mL TGFβ for Smad2/3-Smad4 experiments. For FLAG post-staining of PLA processed tissues, cells were blocked with unlabelled AffiniPure donkey anti-rabbit antibodies (Jackson ImmunoResearch, West Grove, Pa.) at a 1:10 dilution in 1×PBS-T at room temperature for 1 hour before further IF processing with 1:1000 rabbit anti-FLAG (#F7425, Sigma-Aldrich, Darmstadt, Germany) for 1 hour in PBS-T at room temperature. Following three washes with PBS-T for 5 minutes, each sample was stained with 1:500 goat anti-rabbit 546 in PBS-T for 1 hour at room temperature, washed again and then counter-stained as above. For V5 post-staining of PLA processed samples, cells were incubated with 1:200 647 labelled anti-V5 antibody (R&D Systems, Minneapolis, Minn.) diluted in PBS-T at room tem-perature for 1 hour before washing three times in PBS-T for 5 minutes each and then counter-stained as above. Imaging and analysis were performed as described for high-resolution ex vivo PLA signals except that no tissue autofluorescence signal was measured or needed to be subtracted and, when appro-priate, other IF signal (e.g. FLAG) were measured in parallel. For cells on Matrigen HTS plates (FIGS. 2c & 2d), the confluence of cells prevented identifying individual cell boundaries. Instead the PLA signal was quantified as the PLA volume divided by the nuclear intensity for each image. Each data point represents at least 3 unique surfaces with at least 12 cells measured per surface. For Smad2/3-Smad4 experiments, only two independent hydrogels were analyzed for the “CTF 500 μg/mL” and “Neon 500 μg/mL” groups due to loss of hydrogels during processing. Each bar in FIG. 5D represents the mean with standard error of the mean for all the cells analyzed from that condition.

[1] = pulmonary fibrosis; cited from earlier work
Smad3 phosphorylation = assay: phospho-Smad3 to total Smad3 ratio by western blot; assay type: cell-based, human; conditions: 100 μg/mL for 90 minutes, relative to untreated HFFs, p=0.0506
[2] = test system: LEMD3-phospho-Smad2/3 interactions; assay: LEMD3-phospho-Smad2/3 PLA; assay type: cell-based, human; conditions: 100 μg/mL, HFFs on glass, vs untreated fibroblasts, p=0.0333
Protocol: (§1) In vitro PLA: Protein-protein PLA was per-formed with antibody pairs listed in Table 4 as described in (42) with the following modifications: cells were plated on FN-coated glass or hydrogels (Matrigen, Brea, Calif.). All primary antibody in-cubations were performed for 16-24 hours at 4 C and cells were counter-stained with 1:40 phalloidin-488 or phalloidin-546 in 1×PBS for 30 minutes at room temperature and/or further processed for IF imaging using the procedure recommended in Sigma's PLA Resource Center. […] Imaging and analysis were performed as described for high-resolution ex vivo PLA signals except that no tissue autofluorescence signal was measured or needed to be subtracted and, when appro-priate, other IF signal (e.g. FLAG) were measured in parallel. […] Instead the PLA signal was quantified as the PLA volume divided by the nuclear intensity for each image. Each data point represents at least 3 unique surfaces with at least 12 cells measured per surface. For Smad2/3-Smad4 experiments, only two independent hydrogels were analyzed for the “CTF 500 μg/mL” and “Neon 500 μg/mL” groups due to loss of hydrogels during processing. Each bar in FIG. 5D represents the mean with standard error of the mean for all the cells analyzed from that condition.

Smad2/3 = assay: V5-Smad2/3 PLA with recombinant LEMD3 / CTF; assay type: cell-based, human; conditions: 50 μg/mL, 1 kPa or 25 kPa substrates, p=0.98 and p=0.99
Protocol: as §1

Smad2/3-Smad4 complexes = assay: Smad2/3-Smad4 PLA; assay type: cell-based, human; conditions: 500 μg/mL, HFFs on 1 kPa hydrogels, relative to untreated HFFs, p=0.001
Protocol: as §1

[3] = 10 μM, relative to HFFs treated with TGFβ alone, FIG. 1D

maximal luminescence (Smad-driven luciferase; [3]): nor increase the maximal luminescence
transition point (Smad-driven luciferase; [3]): did not significantly shift
Compound: Cc1ccc2c(c1)C(=O)C1(O)CCN(c3ccccc3)C1=N2 (stereo not drawn) [blebbistatin, Blebbistatin]

Compound: CC(C)C[C@@H](C=O)NC(=O)[C@H](CC(C)C)NC(=O)[C@H](CC(C)C)NC(=O)OCc1ccccc1 [MG-132] (Cbz-Leu-Leu-Leu-aldehyde)
60 kDa FLAG fragment relative to full length (LEMD3): also reduced

Compound: C=C1[C@@H](C)[C@H]2[C@H](Cc3ccccc3)NC(=O)[C@]23[C@H](OC(C)=O)/C=C/[C@@](C)(O)C(=O)[C@@H](C)C/C=C/[C@H]3[C@@H]1O [cytochalasin D, Cytochalasin D]
luminescent profile over increasing ECM stiffness (Smad-driven luciferase; 2 μM, FIG. 1D, data did not converge to a sigmoidal model): low, flat luminescent profile
total frequency of LEMD3-Smad2/3 complexes (LEMD3-Smad2/3 complexes; 2 μM for 90 minutes, fibroblasts on glass, p=0.0089): increase
frequency of LEMD3-Smad2/3 complexes, cytosolic compartment (LEMD3-Smad2/3 complexes; 2 μM for 90 minutes, glass, p=0.0871): also increased
frequency of LEMD3-Smad2/3 complexes, nuclear compartment (LEMD3-Smad2/3 complexes; 2 μM for 90 minutes, glass, p=0.5657): also increased

Compound: C/C1=C\[C@H](C)C[C@H](C)OC(=O)C[C@H](c2ccc(O)cc2)NC(=O)[C@@H](Cc2c(Br)[nH]c3ccccc23)N(C)C(=O)[C@H](C)NC(=O)[C@@H](C)C1 [jasplakinolide, Jasplakinolide]
LEMD3-Smad2/3 interactions, total (LEMD3-Smad2/3 complexes; 100 nM and 200 nM for 2 hours, 1 kPa hydrogels, vs DMSO p<0.0001): dose-dependent decrease
LEMD3-Smad2/3 complex formation, cytoplasm (LEMD3-Smad2/3 complexes; 100 nM and 200 nM, 1 kPa hydrogels, vs DMSO p<0.0001): Significant reductions
LEMD3-Smad2/3 complex formation, nucleus (LEMD3-Smad2/3 complexes; 100 nM p=0.0466, 200 nM p=0.002 vs DMSO, 1 kPa hydrogels): Significant reductions

Compound: CC[C@H](CO)Nc1nc(NCc2ccccc2)c2ncn(C(C)C)c2n1 [roscovitine]
46 kDa V5 fragment abundance (LEMD3): significantly increasing
60 kDa FLAG fragment relative to full length (LEMD3): significantly reducing

Compound: CNC(=O)C(CCc1ccccc1)NC(=O)C(CC(=O)NO)CC(C)C (stereo not drawn) [MMPi]
85 kDa V5 fragment abundance (LEMD3): potentiated

Compound: Cc1ccc(=O)n(-c2ccccc2)c1 [Pirfenidone]
disease progression [1]: slowing of disease progression

Compound: O=c1oc(Cl)c(Cl)c2ccccc12 [DCI, 3,4 dichloroisocoumarin]
60 kDa FLAG fragment relative to full length (LEMD3): reduced

Compound: CCOC(=O)[C@H]1O[C@@H]1C(=O)N[C@@H](CC(C)C)C(=O)NCCC(C)C [E64d, E-64D]
85 kDa V5 fragment abundance (LEMD3): potentiated

stiffness at which transition points occurred (Smad-driven luciferase; pg/mL dose-range of TGFβ): 1-4 kPa
Compound: TGFβ: Recombinant human TGF-β, R&D Systems 240-B
TGFβ dose-response of luminescence (Smad-driven luciferase; HFFs on stiff substrates, p<0.0001, FIG. 1B): increasing luminescence with increasing TGFβ dose
shift of the sigmoid transition point with increasing pg/mL doses (Smad-driven luciferase; HFFs, p=0.07, FIG. 1B): shift the transition point of the sigmoid towards softer substrates
ratio of phospho-Smad3 to total Smad3 (Smad3 phosphorylation): increased the ratio of phospho-Smad3 to total Smad3
LEMD3-Smad2/3 interactions with TGFβ dosing (LEMD3-Smad2/3 complexes; 50 μg/mL, 1 kPa and 25 kPa hydrogels): unperturbed by TGFβ dosing
LEMD3-phospho-Smad2/3 interactions [2]: significantly higher
CTF-Smad2/3 interaction frequency with TGFβ dosing (Smad2/3): did not significantly vary
Smad2/3-Smad4 complexes (Smad2/3-Smad4 complexes): increase
